{
  "source": "patent US8580814B2",
  "about": "“Methods of using (+)-1,4-dihydro-7-[(3S,4S)-3-methoxy-4-(methylamino)-1-pyrrolidinyl]-4- oxo-1-(2-thiazolyl)-1,8-naphthyridine-3-carboxylic acid for treatment of cancer” (priority 2006, dated 2013)",
  "key": {"[1]": {"system": "CCRF-CEM acute lymphoblastic leukemia tumor", "test": "CCRF-CEM xenograft model", "assay_type": "in vivo, nude mice", "method": "CCRF-CEM acute lymphoblastic leukemia tumor lobes of 2-3 mm square were transplanted subcutaneously into nude mice. Tumors were allowed to grow to approximately 8-20 mm in diameter. […] Acceptable toxicity was defined as a mean group weight loss of 30% or less and not more than one toxic death among 6 treated animals. Anti-tumor activities of the drugs were assessed 20 or 21 days after the start of administration. Table 14 provides data for tumor inhibition (TI) and survival rate in the CCRF-CEM and LM3-Jck xenograft models."}, "[2]": {"system": "LM3-Jck human malignant lymphoma tumor", "test": "LM3-Jck xenograft model", "assay_type": "in vivo, nude mice", "method": "LM3-Jck human malignant lymphoma tumor lobes (2-3 mm square) were transplanted subcutaneously into nude mice. Tumors were allowed to grow to approximately 7-14 mm in diameter. […] Acceptable toxicity was defined as a mean group weight loss of 30% or less and not more than one toxic death among 6 treated animals. Anti-tumor activities of the drugs were assessed 21 days after the start of administration."}, "[3]": {"system": "HCT-116 cells with 6 fold lower ATR levels", "test": "MTT assay, sensitization (ATRFLOX)", "assay_type": "cell-based", "conditions": "compound 72 hours", "method": "(§1) Cells were then incubated with 5% MTT for 1-2 hours and lysed. MTT was colorimetrically read at 570 nm and EC50's were determined using linear regression analysis.\n(§2) Sensitization was carried out with various chemical treatments."}, "[4]": {"system": "MO59J (DNAPKcs(−/−)) vs MO59K (DNAPKCs(+/+))", "test": "MTT assay, sensitization (DNAPKcs(−/−))", "assay_type": "cell-based", "conditions": "MO59J (DNAPKcs(−/−)) vs MO59K (DNAPKCs(+/+)); compound 72 hours", "method": "as §1, §2"}, "[5]": {"system": "HCT-116 cells treated with 2 mM caffeine", "test": "MTT assay, sensitization (caffeine)", "assay_type": "cell-based", "conditions": "2 mM caffeine pre-treated for 16 hours, compound 72 hours", "method": "as §1, §2"}, "[6]": {"system": "CCRF-CEM (lymphoblastic leukemia)", "test": "MTT cell viability assay, leukemia cells", "assay_type": "cell-based", "conditions": "Homo sapiens, MTT after 72 hours", "method": "(§3) The following cell lines were used in this assay: HL-60 (promyelocytic leukemia); Jurkat (T cell leukemia); CCRF-CEM (lymphoblastic leukemia); CEM/C2 (camptothecan resistant derivative of CCRF-CEM). Cells were seeded in 96 wells plates at 3000 cells per well and incubated for 16 hours. […] Titrations were diluted 1:100 in media to achieve final compound concentrations. The 96 well plates were aspirated and compound dilutions in media were added ([…]). MTT analysis was carried out after 72 hours of incubation at 37° C. Briefly, […] of MTT solution was added to each well. Cells were incubated at 37° C. for 1-2 hours. […] Plates were read on a spectromax machine with an absorbance measurement at […]. IC50's were calculated (data provided in Table 13) using regression analysis within GraphPad Prism."}, "[7]": {"system": "CEM/C2 (camptothecan resistant derivative of CCRF-CEM)", "test": "MTT cell viability assay, leukemia cells", "assay_type": "cell-based", "conditions": "Homo sapiens; CEM/C2, MTT after 72 hours", "method": "as §3"}, "[8]": {"system": "HL-60 (promyelocytic leukemia)", "test": "MTT cell viability assay, leukemia cells", "assay_type": "cell-based", "conditions": "Homo sapiens; HL-60, MTT after 72 hours", "method": "as §3"}},
  "note": "Marks after values point to notes of the source that are not given here.",
  "data": [
    {"compound": "CCc1c2c(nc3ccc(OC(=O)N4CCC(N5CCCCC5)CC4)cc13)-c1cc3c(c(=O)n1C2)COC(=O)[C@]3(O)CC", "note": "[Irinotecan, irinotecan, reference compound]", "values": [
      {"measurement": "IR (%) (tumor inhibition rate)", "setting": "[1]; q4d x3, IV, 100 mg/kg", "result": "99.7* %"},
      {"measurement": "Survival Ratio", "setting": "[1]; q4d x3, IV, 100 mg/kg", "result": "5/6"},
      {"measurement": "IR (%) (tumor inhibition rate)", "setting": "[2]; LM3-JcK, q4d x3, IV, 100 mg/kg", "result": "97.7* %"},
      {"measurement": "Survival Ratio", "setting": "[2]; LM3-JcK, q4d x3, IV, 100 mg/kg", "result": "6/6"}
    ]},
    {"compound": "CC[C@@]1(O)C(=O)OCc2c1cc1n(c2=O)Cc2cc3ccccc3nc2-1", "note": "[Camptothecin, reference compound]", "values": [
      {"measurement": "Sensitization, fold decrease in the EC50 for cytotoxicity (MTT): ATRFLOX", "setting": "[3]", "result": 5, "unit": "fold"},
      {"measurement": "Sensitization, fold decrease in the EC50 for cytotoxicity (MTT): DNAPKcs(−/−)", "setting": "[4]", "result": 0.7, "unit": "fold"},
      {"measurement": "Sensitization, fold decrease in the EC50 for cytotoxicity (MTT): Caffeine", "setting": "[5]", "result": 6, "unit": "fold"}
    ]},
    {"compound": "COc1cc([C@@H]2c3cc4c(cc3[C@@H](O[C@@H]3O[C@@H]5CO[C@@H](C)O[C@H]5[C@H](O)[C@H]3O)[C@H]3COC(=O)[C@H]23)OCO4)cc(OC)c1O", "note": "[Etoposide, etoposide, reference compound]", "values": [
      {"measurement": "IR (%) (tumor inhibition rate)", "setting": "[1]; qd X 5, IV, 12 mg/kg", "result": 28.3, "unit": "%"},
      {"measurement": "IR (%) (tumor inhibition rate)", "setting": "[2]; LM3-JcK, qd X 5, IV, 12 mg/kg", "result": 3.0, "unit": "%"}
    ]},
    {"compound": "COc1cccc2c1C(=O)c1c(O)c3c(c(O)c1C2=O)C[C@@](O)(C(=O)CO)C[C@@H]3O[C@H]1C[C@H](N)[C@H](O)[C@H](C)O1", "note": "[Doxorubicin, doxorubicin, reference compound]", "values": [
      {"measurement": "IC50", "setting": "[6]", "result": 0.003, "unit": "µg/mL"},
      {"measurement": "IC50", "setting": "[7]", "result": 0.017, "unit": "µg/mL"},
      {"measurement": "IC50", "setting": "[8]", "result": 0.024, "unit": "µg/mL"},
      {"measurement": "IR (%) (tumor inhibition rate)", "setting": "[1]; q7d X3, IV, 12 mg/kg", "result": "50.3* %"},
      {"measurement": "IR (%) (tumor inhibition rate)", "setting": "[2]; LM3-JcK, q7d X3, IV, 12 mg/kg", "result": "57.2* %"},
      {"measurement": "Survival Ratio", "setting": "[2]; nude, mouse, in vivo, iv, 12 mg/kg, 21 days", "result": "6/6"}
    ]}
  ]
}
